From ChEMBL document CHEMBL3784918, “Novel 2,4-diaminopyrimidines bearing tetrahydronaphthalenyl moiety against anaplastic lymphoma kinase (ALK): Synthesis, in vitro, ex vivo, and in vivo efficacy studies” (Bioorg Med Chem Lett, 2016)
Active and inactive are the calls of the source. No cut-off for these calls is given here.

Experiments:
EML4-ALK (Homo sapiens) = EML4-ALK (Homo sapiens) (UniProt Q9UM73+Q9HC35); test: Inhibition of EML4-ALK in human NCI-H3122 cells assessed as inhibition of cell proliferation after 72 hrs by SRB assay; format: cell-based
[1] = Metabolic stability of the compound in human liver microsomes assessed as compound remaining at 1 uM after 30 mins by LC/MS/MS analysis in the presence of NADPH; format: ADME; settings: read-out: Stability
CYP3A4 = CYP3A4 (Homo sapiens, UniProt P08684); test: Inhibition of CYP3A4 (unknown origin) at 10 uM; format: ADME
Sequence of CYP3A4 (P08684 whole entry): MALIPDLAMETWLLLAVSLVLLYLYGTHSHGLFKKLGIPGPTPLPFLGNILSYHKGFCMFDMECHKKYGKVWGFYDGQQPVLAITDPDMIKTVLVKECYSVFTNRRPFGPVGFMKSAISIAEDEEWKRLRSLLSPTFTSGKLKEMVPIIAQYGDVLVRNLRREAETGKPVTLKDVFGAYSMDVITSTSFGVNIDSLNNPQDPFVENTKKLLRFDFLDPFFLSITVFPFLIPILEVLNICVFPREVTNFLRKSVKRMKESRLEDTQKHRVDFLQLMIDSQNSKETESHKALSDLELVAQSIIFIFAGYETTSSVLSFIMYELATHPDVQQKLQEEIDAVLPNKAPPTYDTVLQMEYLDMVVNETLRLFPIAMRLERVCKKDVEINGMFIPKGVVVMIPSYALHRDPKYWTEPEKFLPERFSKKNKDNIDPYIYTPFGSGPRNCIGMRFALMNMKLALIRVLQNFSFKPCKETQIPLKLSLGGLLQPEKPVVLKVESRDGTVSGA

[2] = AUCt in cannulated Sprague Dawley rat at 10 mg/kg administered through oral gavage by LC/MS/MS analysis; format: ADME, organism-based; settings: in vivo
CYP2C9 = CYP2C9 (Homo sapiens, UniProt P11712); test: Inhibition of CYP2C9 (unknown origin) at 10 uM; format: ADME
Sequence of CYP2C9 (P11712 whole entry): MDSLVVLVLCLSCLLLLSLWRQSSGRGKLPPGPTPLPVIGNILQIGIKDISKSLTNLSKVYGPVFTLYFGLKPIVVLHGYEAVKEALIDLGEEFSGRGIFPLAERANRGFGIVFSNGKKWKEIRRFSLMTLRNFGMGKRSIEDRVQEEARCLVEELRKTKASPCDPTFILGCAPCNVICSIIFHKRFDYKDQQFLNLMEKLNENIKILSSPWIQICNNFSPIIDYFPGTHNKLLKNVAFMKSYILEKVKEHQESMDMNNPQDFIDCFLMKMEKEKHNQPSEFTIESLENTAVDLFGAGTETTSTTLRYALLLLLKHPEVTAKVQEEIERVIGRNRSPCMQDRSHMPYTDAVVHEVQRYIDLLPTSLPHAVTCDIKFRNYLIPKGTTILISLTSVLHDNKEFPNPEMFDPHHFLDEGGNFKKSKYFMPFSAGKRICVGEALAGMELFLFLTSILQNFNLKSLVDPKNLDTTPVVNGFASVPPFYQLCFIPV

CYP2C19 = CYP2C19 (Homo sapiens, UniProt P33261); test: Inhibition of CYP2C19 (unknown origin) at 10 uM; format: ADME
[3] = target: ALK tyrosine kinase receptor (Homo sapiens, UniProt Q9UM73); test: Inhibition of wild type ALK (unknown origin) after 30 mins by HTRF assay
Sequence of ALK tyrosine kinase receptor (Homo sapiens, UniProt Q9UM73) (Q9UM73 whole entry): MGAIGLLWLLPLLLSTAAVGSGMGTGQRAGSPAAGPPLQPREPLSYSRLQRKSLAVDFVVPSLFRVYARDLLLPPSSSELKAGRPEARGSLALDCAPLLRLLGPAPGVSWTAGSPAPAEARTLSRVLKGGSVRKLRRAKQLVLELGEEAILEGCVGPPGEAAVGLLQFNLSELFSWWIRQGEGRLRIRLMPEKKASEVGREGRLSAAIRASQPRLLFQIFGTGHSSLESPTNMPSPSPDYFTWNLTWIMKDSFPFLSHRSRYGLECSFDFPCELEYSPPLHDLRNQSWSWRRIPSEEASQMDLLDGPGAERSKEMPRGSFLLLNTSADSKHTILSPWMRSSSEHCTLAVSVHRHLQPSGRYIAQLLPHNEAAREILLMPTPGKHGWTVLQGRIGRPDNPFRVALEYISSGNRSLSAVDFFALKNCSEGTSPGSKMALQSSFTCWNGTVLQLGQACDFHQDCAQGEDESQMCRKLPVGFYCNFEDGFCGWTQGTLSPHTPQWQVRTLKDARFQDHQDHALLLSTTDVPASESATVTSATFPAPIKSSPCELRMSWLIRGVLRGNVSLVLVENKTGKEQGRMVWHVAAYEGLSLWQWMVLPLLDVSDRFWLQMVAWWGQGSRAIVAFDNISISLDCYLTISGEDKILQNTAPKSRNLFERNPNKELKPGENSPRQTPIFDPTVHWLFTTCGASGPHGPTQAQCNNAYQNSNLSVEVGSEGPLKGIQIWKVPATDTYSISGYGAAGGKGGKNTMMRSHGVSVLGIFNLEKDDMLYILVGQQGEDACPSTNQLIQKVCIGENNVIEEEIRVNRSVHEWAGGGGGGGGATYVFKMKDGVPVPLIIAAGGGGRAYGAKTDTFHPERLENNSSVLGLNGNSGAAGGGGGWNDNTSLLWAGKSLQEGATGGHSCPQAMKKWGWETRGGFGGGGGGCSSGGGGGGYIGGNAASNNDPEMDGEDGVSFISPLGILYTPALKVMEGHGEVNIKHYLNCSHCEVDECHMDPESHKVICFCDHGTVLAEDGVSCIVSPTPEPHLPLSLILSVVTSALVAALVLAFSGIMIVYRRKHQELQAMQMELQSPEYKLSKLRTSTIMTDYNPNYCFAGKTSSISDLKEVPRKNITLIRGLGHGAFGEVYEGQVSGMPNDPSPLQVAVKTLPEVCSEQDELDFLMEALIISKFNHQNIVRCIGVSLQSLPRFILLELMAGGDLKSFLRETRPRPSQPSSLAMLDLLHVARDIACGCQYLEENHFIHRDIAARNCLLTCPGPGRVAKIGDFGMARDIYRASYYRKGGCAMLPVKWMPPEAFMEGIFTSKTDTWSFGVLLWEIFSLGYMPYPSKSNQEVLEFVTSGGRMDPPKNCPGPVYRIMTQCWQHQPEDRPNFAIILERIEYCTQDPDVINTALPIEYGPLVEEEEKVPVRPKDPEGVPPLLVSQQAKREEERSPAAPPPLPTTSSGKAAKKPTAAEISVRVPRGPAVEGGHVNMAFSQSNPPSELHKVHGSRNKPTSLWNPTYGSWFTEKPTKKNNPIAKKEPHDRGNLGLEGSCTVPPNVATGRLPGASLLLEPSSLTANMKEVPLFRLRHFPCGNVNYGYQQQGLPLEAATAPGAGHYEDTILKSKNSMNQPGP

[4] = Cmax in cannulated Sprague Dawley rat at 10 mg/kg administered through oral gavage by LC/MS/MS analysis; format: ADME, organism-based; parameters: dose 10 mg/kg, route oral; settings: in vivo
[5] = target: ALK tyrosine kinase receptor (Homo sapiens, UniProt Q9UM73, L1196M); test: Inhibition of ALK L1196M mutant (unknown origin) after 30 mins by HTRF assay
Sequence of ALK tyrosine kinase receptor (Homo sapiens, UniProt Q9UM73, L1196M) (Q9UM73 19-1620 L1196M limits assumed): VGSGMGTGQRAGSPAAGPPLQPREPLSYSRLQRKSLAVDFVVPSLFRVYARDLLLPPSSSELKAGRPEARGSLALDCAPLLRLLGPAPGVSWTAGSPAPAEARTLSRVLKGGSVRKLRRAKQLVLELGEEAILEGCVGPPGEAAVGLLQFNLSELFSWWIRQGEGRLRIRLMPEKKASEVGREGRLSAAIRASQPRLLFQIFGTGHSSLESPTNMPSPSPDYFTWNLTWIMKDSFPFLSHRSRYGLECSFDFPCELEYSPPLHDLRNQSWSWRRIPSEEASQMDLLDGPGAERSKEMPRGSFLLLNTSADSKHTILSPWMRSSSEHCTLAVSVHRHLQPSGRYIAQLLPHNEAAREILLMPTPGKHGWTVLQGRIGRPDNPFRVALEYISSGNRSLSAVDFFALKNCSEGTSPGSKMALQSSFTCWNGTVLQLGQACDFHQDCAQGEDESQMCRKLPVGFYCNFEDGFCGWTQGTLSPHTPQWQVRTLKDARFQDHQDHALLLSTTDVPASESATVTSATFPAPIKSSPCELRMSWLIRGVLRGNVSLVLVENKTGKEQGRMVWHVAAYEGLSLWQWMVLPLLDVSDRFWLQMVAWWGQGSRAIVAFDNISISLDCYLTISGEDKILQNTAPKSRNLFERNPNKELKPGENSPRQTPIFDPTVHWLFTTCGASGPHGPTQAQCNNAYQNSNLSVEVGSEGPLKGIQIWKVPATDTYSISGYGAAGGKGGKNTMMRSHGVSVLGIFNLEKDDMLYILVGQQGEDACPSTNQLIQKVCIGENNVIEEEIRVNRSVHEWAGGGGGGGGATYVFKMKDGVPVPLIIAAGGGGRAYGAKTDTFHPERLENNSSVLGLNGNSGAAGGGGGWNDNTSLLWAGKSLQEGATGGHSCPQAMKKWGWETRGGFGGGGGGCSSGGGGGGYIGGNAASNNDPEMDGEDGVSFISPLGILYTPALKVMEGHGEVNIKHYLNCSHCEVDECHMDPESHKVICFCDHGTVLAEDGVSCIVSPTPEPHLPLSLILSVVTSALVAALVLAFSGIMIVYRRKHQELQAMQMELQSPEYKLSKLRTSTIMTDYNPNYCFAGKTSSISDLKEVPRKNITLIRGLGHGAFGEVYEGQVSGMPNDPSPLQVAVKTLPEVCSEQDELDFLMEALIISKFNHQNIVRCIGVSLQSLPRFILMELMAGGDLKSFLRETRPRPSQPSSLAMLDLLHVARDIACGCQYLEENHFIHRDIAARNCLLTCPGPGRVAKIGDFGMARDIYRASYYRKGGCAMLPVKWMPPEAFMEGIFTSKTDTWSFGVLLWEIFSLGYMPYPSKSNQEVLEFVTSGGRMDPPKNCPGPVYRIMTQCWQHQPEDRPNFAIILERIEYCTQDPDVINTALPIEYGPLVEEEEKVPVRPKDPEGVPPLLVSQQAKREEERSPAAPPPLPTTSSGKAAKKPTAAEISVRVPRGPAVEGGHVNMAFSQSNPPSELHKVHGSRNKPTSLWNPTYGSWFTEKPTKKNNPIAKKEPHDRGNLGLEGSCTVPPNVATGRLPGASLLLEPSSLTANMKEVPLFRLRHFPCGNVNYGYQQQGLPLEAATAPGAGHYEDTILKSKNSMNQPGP

CYP2D6 = CYP2D6 (Homo sapiens, UniProt P10635); test: Inhibition of CYP2D6 (unknown origin) at 10 uM; format: ADME
[6] = AUCinfinity in cannulated Sprague Dawley rat at 10 mg/kg administered through oral gavage by LC/MS/MS analysis; format: ADME, organism-based; parameters: dose 10 mg/kg, time infinity, route oral; settings: in vivo
BaF3 = test: Inhibition of ALK L1196M mutant in mouse BA/F3 cells assessed as inhibition of cell proliferation after 72 hrs by WST1 assay; format: cell-based
CYP1A2 = CYP1A2 (Homo sapiens, UniProt P05177); test: Inhibition of CYP1A2 (unknown origin) at 10 uM; format: ADME
Sequence of CYP1A2 (P05177 whole entry): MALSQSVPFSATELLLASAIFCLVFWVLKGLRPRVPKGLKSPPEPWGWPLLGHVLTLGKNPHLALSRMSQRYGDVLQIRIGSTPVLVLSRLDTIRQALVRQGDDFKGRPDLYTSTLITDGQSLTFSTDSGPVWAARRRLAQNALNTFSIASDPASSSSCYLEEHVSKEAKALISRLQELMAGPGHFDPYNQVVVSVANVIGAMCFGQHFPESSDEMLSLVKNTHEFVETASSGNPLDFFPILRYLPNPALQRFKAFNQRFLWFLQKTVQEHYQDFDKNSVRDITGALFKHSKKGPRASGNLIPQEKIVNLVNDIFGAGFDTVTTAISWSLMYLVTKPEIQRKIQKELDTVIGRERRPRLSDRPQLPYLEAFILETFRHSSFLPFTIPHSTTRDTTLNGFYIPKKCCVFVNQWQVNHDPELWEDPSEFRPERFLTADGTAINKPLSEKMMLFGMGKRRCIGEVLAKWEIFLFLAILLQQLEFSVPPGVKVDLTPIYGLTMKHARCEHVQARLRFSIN

[7] = Half life in cannulated Sprague Dawley rat at 10 mg/kg administered through oral gavage by LC/MS/MS analysis; format: ADME, organism-based; settings: in vivo
Mus musculus = test: Toxicity in SCID mouse xenografted with human H3122 cells assessed as change in body weight at 50 mg/kg, po administered qd for 14 days measured during compound dosing; format: organism-based; settings: in vivo, 336 h
[8] = Metabolic stability of the compound in mouse liver microsomes assessed as compound remaining at 1 uM after 30 mins by LC/MS/MS analysis in the presence of NADPH; format: ADME; settings: read-out: Stability
NCI-H3122 = test: Antitumor activity against human NCI-H3122 cells xenografted in SCID mouse assessed as tumor growth inhibition at 50 mg/kg, po administered qd for 14 days; format: functional, organism-based
[9] = Tmax in cannulated Sprague Dawley rat at 10 mg/kg administered through oral gavage by LC/MS/MS analysis; format: ADME, organism-based; settings: in vivo

- remaining at 0.5 h, 1 µM [1]: 20%
- inhibition at 10 µM (CYP3A4): 47.5%
- AUC(0-t) [2]: 3750 ng·h/mL
- inhibition at 10 µM (CYP2C9): 17.1%
- inhibition at 10 µM (CYP2C19): 43.4%
- IC50 [3]: 0.5 nM
- Cmax [4]: 1270 ng/mL
- IC50 [5]: 8.4 nM
- inhibition at 10 µM (CYP2D6): 11.4%
- AUC(0-inf) [6]: 3760 ng·h/mL
- inhibition at 10 µM (CYP1A2): 7.2%
- half-life [7]: 3.04 h
- remaining at 0.5 h, 1 µM [8]: 14%
- Tmax [9]: 0.833 h
Compound: COc1cc2c(cc1Nc1ncc(Cl)c(Nc3ccccc3S(=O)(=O)C(C)C)n1)CC/C(=N\N1CCN(C)CC1)C2(C)C
- CC50 (EML4-ALK (Homo sapiens)): 14 nM
- CC50 (BaF3): 66 nM
- Activity (Mus musculus): Non-toxic
- TGI (NCI-H3122): Active
